The data set has as its system rodent lifetime carcinogenesis bioassay, tumor incidence TD50. As to the kind of experiment: carcinogenic potency in animals, long-term in vivo studies, CPDB compilation (AID 1745844).
Where [1] appears, read: rat, strain Fischer 344, females, in feed, site: any site (literature study), lesion: several types, types named in the paper, dosed 103 weeks, study length 104 weeks.

Where “and” joins values, the source holds several entries; their conditions need not be identical. Identical values can stand only once. Calls of active or inactive are those of the source. No rule for the calls is given here.

One may read the TD50 as the dose at which the toxic effect under study appears in half of the subjects. In the case of `C#CC(C)(C)NC(=O)c1cc(Cl)cc(Cl)c1`, the TD50 (mouse, strain B6C3F1, males, in feed, site: liver, lesion: hepatocellular carcinoma, dosed 78 weeks, study length 78 weeks) stood at 1480 mg/kg/day; the TD50 (mouse, strain B6C3F1, males, in feed, site: liver, lesion: hepatocellular carcinoma, dosed 104 weeks, study length 104 weeks) was 140 mg/kg/day; the TD50 (mouse, strain B6C3F1, males, in feed, site: liver, lesion: several types, types named in the paper, dosed 52 weeks, study length 52 weeks) was determined as 1360 mg/kg/day; the TD50 (mouse, strain B6C3F1, males, in feed, site: liver, lesion: several types, types named in the paper, dosed 78 weeks, study length 78 weeks) was found to be 700 mg/kg/day; the TD50 (mouse, strain B6C3F1, males, in feed, site: liver, lesion: several types, types named in the paper, dosed 104 weeks, study length 104 weeks) is 209 mg/kg/day.

In the case of `COC(=O)[C@H]1[C@H]2C[C@@H]3c4[nH]c5cc(OC)ccc5c4CCN3C[C@H]2C[C@@H](OC(=O)c2cc(OC)c(OC)c(OC)c2)[C@@H]1OC`, the TD50 (mouse, strain B6C3F1, females, in feed, site: any site (literature study), lesion: several types, types named in the paper, dosed 103 weeks, study length 104 weeks) was found to be 6.42 mg/kg/day; the TD50 (mouse, strain B6C3F1, females, in feed, site: lung, lesion: alveolar/bronchiolar adenoma + alveolar/bronchiolar carcinoma, dosed 103 weeks, study length 104 weeks) was found to be 54.5 mg/kg/day; the TD50 (mouse, strain B6C3F1, females, in feed, site: mammary gland, lesion: all tumors, dosed 103 weeks, study length 104 weeks) was 3.58 mg/kg/day; the TD50 (mouse, strain B6C3F1, males, in feed, site: liver, lesion: hepatocellular adenoma + hepatocellular carcinoma + neoplastic nodule, dosed 103 weeks, study length 104 weeks) came out at 5.46 mg/kg/day; the TD50 (mouse, strain B6C3F1, males, in feed, site: seminal vesicle, lesion: undifferentiated carcinoma, dosed 103 weeks, study length 104 weeks) was 8.39 mg/kg/day; the TD50 (mouse, strain C3H (MTV+), females, in feed, site: mammary gland, lesion: adenocarcinoma, dosed 104 weeks, study length 104 weeks) came to 0.0342 mg/kg/day. The TD50 was 0.727 mg/kg/day (inactive) under setting [1]; 0.306 mg/kg/day (rat, strain Fischer 344, males, in feed, site: adrenal gland, lesion: pheochromocytoma + pheochromocytoma, malignant, dosed 103 weeks, study length 104 weeks); 6.77 mg/kg/day (rat, strain Fischer 344, males, in feed, site: liver, lesion: hepatocellular adenoma + hepatocellular carcinoma + neoplastic nodule, dosed 103 weeks, study length 104 weeks); 38.3 mg/kg/day (inactive) (rat, strain Wistar, males, in feed, site: pituitary gland, lesion: adenoma, dosed 75 weeks, study length 75 weeks). In addition, the carcinogen call (rat, strain Wistar, females, in feed, site: mammary gland, lesion: fibroadenoma, dosed 75 weeks, study length 75 weeks) is “negative (inactive)” and the carcinogen call (rat, strain Wistar, females, in feed, site: pituitary gland, lesion: several types, types named in the paper, dosed 75 weeks, study length 75 weeks) was “negative (inactive)”.

With `COP(=S)(OC)Oc1ccc([N+](=O)[O-])cc1`, the carcinogen call by setting is: (mouse, strain B6C3F1, females, in feed, site: any site (literature study), lesion: several types, types named in the paper, dosed 102 weeks, study length 102 weeks) “negative (inactive)”; (mouse, strain B6C3F1, males, in feed, site: any site (literature study), lesion: several types, types named in the paper, dosed 102 weeks, study length 102 weeks) “negative (inactive)”; (rat, strain Fischer 344, females, in feed, site: any site (literature study), lesion: several types, types named in the paper, dosed 105 weeks, study length 105 weeks) “negative (inactive)”; (rat, strain Fischer 344, males, in feed, site: any site (literature study), lesion: several types, types named in the paper, dosed 105 weeks, study length 105 weeks) “negative (inactive)”. The TD50 (mouse, strain B6C3F1, females, in feed, site: lung, lesion: alveolar/bronchiolar adenoma + alveolar/bronchiolar carcinoma, dosed 102 weeks, study length 102 weeks) stood at 125 mg/kg/day and the TD50 (mouse, strain B6C3F1, males, in feed, site: lung, lesion: alveolar/bronchiolar adenoma + alveolar/bronchiolar carcinoma, dosed 102 weeks, study length 102 weeks) was 58.1 mg/kg/day.

Turning to `C=CBr`, the TD50 runs as follows: (rat, strain Sprague-Dawley, females, inhaled, site: Zymbal's gland, lesion: squamous-cell carcinoma, dosed 81 weeks, study length 103 weeks) 2240 mg/kg/day; (rat, strain Sprague-Dawley, females, inhaled, site: liver, lesion: hepatocellular carcinoma, dosed 81 weeks, study length 103 weeks) 749 mg/kg/day; (rat, strain Sprague-Dawley, females, inhaled, site: liver, lesion: neoplastic nodule, dosed 81 weeks, study length 103 weeks) 18.9 mg/kg/day; (rat, strain Sprague-Dawley, females, inhaled, site: liver, lesion: several types, types named in the paper, dosed 81 weeks, study length 103 weeks) 433 mg/kg/day; (rat, strain Sprague-Dawley, females, inhaled, site: several sites, sites named in the paper, lesion: angiosarcoma, dosed 81 weeks, study length 103 weeks) 19.2 mg/kg/day; (rat, strain Sprague-Dawley, males, inhaled, site: Zymbal's gland, lesion: papilloma, dosed 76 weeks, study length 103 weeks) 2760 mg/kg/day. The TD50 (rat, strain Sprague-Dawley, males, inhaled, site: Zymbal's gland, lesion: squamous-cell carcinoma, dosed 76 weeks, study length 103 weeks) is 409 mg/kg/day; the TD50 (rat, strain Sprague-Dawley, males, inhaled, site: liver, lesion: hepatocellular carcinoma, dosed 76 weeks, study length 103 weeks) was 387 mg/kg/day; the TD50 (rat, strain Sprague-Dawley, males, inhaled, site: liver, lesion: several types, types named in the paper, dosed 76 weeks, study length 103 weeks) was 303 mg/kg/day; the TD50 (rat, strain Sprague-Dawley, males, inhaled, site: several sites, sites named in the paper, lesion: angiosarcoma, dosed 76 weeks, study length 103 weeks) is 17.9 mg/kg/day.

For the molecule `C=CCN(N=O)C(N)=O`, the TD50 (rat, strain Fischer 344, females, by gavage, site: forestomach, lesion: one or several types, types not named, dosed 30 weeks, study length 104 weeks) was 0.476 mg/kg/day; the TD50 (rat, strain Fischer 344, females, by gavage, site: mammary gland, lesion: adenocarcinoma, dosed 30 weeks, study length 104 weeks) was 0.601 mg/kg/day; the TD50 (rat, strain Fischer 344, females, by gavage, site: uterus, lesion: several types, types named in the paper, dosed 30 weeks, study length 104 weeks) is 1.87 mg/kg/day; the TD50 (rat, strain Fischer 344, males, by gavage, site: Zymbal's gland, lesion: one or several types, types not named, dosed 30 weeks, study length 104 weeks) came out at 0.541 mg/kg/day; the TD50 (rat, strain Fischer 344, males, by gavage, site: colon, lesion: one or several types, types not named, dosed 30 weeks, study length 104 weeks) was 0.541 mg/kg/day; the TD50 (rat, strain Fischer 344, males, by gavage, site: forestomach, lesion: one or several types, types not named, dosed 30 weeks, study length 104 weeks) is 0.266 mg/kg/day. The TD50 (rat, strain Fischer 344, males, by gavage, site: lung, lesion: several types, types named in the paper, dosed 30 weeks, study length 104 weeks) was 0.421 mg/kg/day.

As for `ClCOCC(COCCl)OCCl`, the TD50 (mouse, strain Ha/ICR, females, i.p., site: abdomen, lesion: sarcoma, dosed 76 weeks, study length 76 weeks) was 3.44 mg/kg/day.

As to `O=c1c(CO)c/c(=N/Nc2ccc(S(=O)(=O)O)c3ccccc23)c(=O)/c1=N/Nc1ccc(S(=O)(=O)O)c2ccccc12`, the TD50 (mouse, strain Tuck, females, in feed, site: all sites, lesion: lymphosarcoma, dosed 80 weeks, study length 80 weeks) is 36.3 mg/kg/day (inactive); the TD50 (mouse, strain Tuck, females, in feed, site: liver, lesion: hyperplastic nodule, dosed 80 weeks, study length 80 weeks) was 8440 mg/kg/day (inactive); the TD50 (mouse, strain Tuck, males, in feed, site: liver, lesion: hyperplastic nodule, dosed 80 weeks, study length 80 weeks) was 106000 mg/kg/day (inactive). In addition, the carcinogen call was “negative (inactive)” (mouse, strain Tuck, females, in feed, site: lung, lesion: adenoma, dosed 80 weeks, study length 80 weeks); “negative (inactive)” (mouse, strain Tuck, males, in feed, site: liver, lesion: liver-cell adenoma, dosed 80 weeks, study length 80 weeks); “negative (inactive)” (mouse, strain Tuck, males, in feed, site: lung, lesion: adenoma, dosed 80 weeks, study length 80 weeks).

For `Nc1ccc2c(c1)oc1ccccc12`, the TD50 reads like this: (rat, strain Wistar, males, in feed, site: any site (literature study), lesion: benign tumor, dosed 89 weeks, study length 89 weeks) 1.57 mg/kg/day; (rat, strain Wistar, males, in feed, site: any site (literature study), lesion: malignant tumor, dosed 89 weeks, study length 89 weeks) 2.48 mg/kg/day; (rat, strain Wistar, males, in feed, site: liver, lesion: hepatoma, dosed 89 weeks, study length 89 weeks) 9.44 mg/kg/day.

Take `COc1ccc([N+](=O)[O-])cc1N=Nc1c(O)c(C(=O)Nc2cccc([N+](=O)[O-])c2)cc2ccccc12`: the TD50 is, setting by setting: (mouse, strain B6C3F1, females, in feed, site: any site (literature study), lesion: several types, types named in the paper, dosed 103 weeks, study length 103 weeks) 29700 mg/kg/day (inactive); (mouse, strain B6C3F1, females, in feed, site: lung, lesion: alveolar/bronchiolar adenoma + alveolar/bronchiolar carcinoma, dosed 103 weeks, study length 103 weeks) 45200 mg/kg/day; (mouse, strain B6C3F1, males, in feed, site: any site (literature study), lesion: several types, types named in the paper, dosed 103 weeks, study length 103 weeks) 20200 mg/kg/day (inactive); (mouse, strain B6C3F1, males, in feed, site: liver, lesion: hepatocellular adenoma + hepatocellular carcinoma + neoplastic nodule, dosed 103 weeks, study length 103 weeks) 15100 mg/kg/day; (mouse, strain B6C3F1, males, in feed, site: lung, lesion: alveolar/bronchiolar adenoma + alveolar/bronchiolar carcinoma, dosed 103 weeks, study length 103 weeks) 112000 mg/kg/day; (rat, strain Fischer 344, males, in feed, site: kidney, lesion: tubule adenoma + tubule carcinoma, dosed 103 weeks, study length 104 weeks) 19800 mg/kg/day and 16300 mg/kg/day. Also, under setting [1], the carcinogen call is “negative (inactive)”.

Turning to `O=NN(CCO)C(=O)NCCCl`, the TD50 reads like this: (rat, strain Fischer 344, females, by gavage, site: all sites, lesion: mononuclear-cell leukemia, dosed 40 weeks, study length 115 weeks) 0.76 mg/kg/day; (rat, strain Fischer 344, females, by gavage, site: kidney tubule, lesion: several types, types named in the paper, dosed 40 weeks, study length 115 weeks) 4.38 mg/kg/day; (rat, strain Fischer 344, females, by gavage, site: liver, lesion: cholangiocarcinoma, dosed 40 weeks, study length 115 weeks) 4.38 mg/kg/day; (rat, strain Fischer 344, females, by gavage, site: liver, lesion: hepatocellular carcinoma, dosed 40 weeks, study length 115 weeks) 0.653 mg/kg/day; (rat, strain Fischer 344, females, by gavage, site: liver, lesion: neoplastic nodule, dosed 40 weeks, study length 115 weeks) 0.564 mg/kg/day; (rat, strain Fischer 344, females, by gavage, site: liver, lesion: several types, types named in the paper, dosed 40 weeks, study length 115 weeks) 0.488 mg/kg/day. In addition, the TD50 by setting is: (rat, strain Fischer 344, females, in drinking water, site: liver, lesion: one or several types, types not named, dosed 30 weeks, study length 104 weeks) 1.19 mg/kg/day; (rat, strain Fischer 344, females, in drinking water, site: uterus, lesion: one or several types, types not named, dosed 30 weeks, study length 104 weeks) 0.669 mg/kg/day; (rat, strain Fischer 344, males, by gavage, site: kidney tubule, lesion: several types, types named in the paper, dosed 35 weeks, study length 120 weeks) 0.663 mg/kg/day; (rat, strain Fischer 344, males, by gavage, site: liver, lesion: cholangiocarcinoma, dosed 35 weeks, study length 120 weeks) 0.926 mg/kg/day; (rat, strain Fischer 344, males, by gavage, site: liver, lesion: hepatocellular carcinoma, dosed 35 weeks, study length 120 weeks) 0.233 mg/kg/day; (rat, strain Fischer 344, males, by gavage, site: liver, lesion: neoplastic nodule, dosed 35 weeks, study length 120 weeks) 1.19 mg/kg/day. In addition, the TD50 was 0.15 mg/kg/day (rat, strain Fischer 344, males, by gavage, site: liver, lesion: several types, types named in the paper, dosed 35 weeks, study length 120 weeks) and 0.59 mg/kg/day (rat, strain Fischer 344, males, in drinking water, site: liver, lesion: one or several types, types not named, dosed 30 weeks, study length 104 weeks).

The values are drawn from PubChem BioAssay AID1745844 (Carcinogenic Potency Database (CPDB), 2022).
